Data from US20090239916A1, “NOVEL DRUG DISCOVERY TARGET AND MEDICINE ACTING ON THE SAME” (Reverse Proteomics Research Institute Co., Ltd, priority 2004, published 2009).
Structures can show the parent of a compound that is named as a salt.

What was measured:
recombinant MFP-2 = target: T1, recombinant MFP-2 (Homo sapiens, UniProt P51659); test: Measurement of Kd value between MFP-2 and Intal using Biacore; format: binding; details: Biacore 3000; Intal-immobilized gold chip; MFP-2 25, 12.5 and 6.25 nM; global fitting
T1 construct: His-tag (N); made in house; host or cells: E. coli (pDEST17, GATEWAY system)
T1 sequence (P51659 1-736): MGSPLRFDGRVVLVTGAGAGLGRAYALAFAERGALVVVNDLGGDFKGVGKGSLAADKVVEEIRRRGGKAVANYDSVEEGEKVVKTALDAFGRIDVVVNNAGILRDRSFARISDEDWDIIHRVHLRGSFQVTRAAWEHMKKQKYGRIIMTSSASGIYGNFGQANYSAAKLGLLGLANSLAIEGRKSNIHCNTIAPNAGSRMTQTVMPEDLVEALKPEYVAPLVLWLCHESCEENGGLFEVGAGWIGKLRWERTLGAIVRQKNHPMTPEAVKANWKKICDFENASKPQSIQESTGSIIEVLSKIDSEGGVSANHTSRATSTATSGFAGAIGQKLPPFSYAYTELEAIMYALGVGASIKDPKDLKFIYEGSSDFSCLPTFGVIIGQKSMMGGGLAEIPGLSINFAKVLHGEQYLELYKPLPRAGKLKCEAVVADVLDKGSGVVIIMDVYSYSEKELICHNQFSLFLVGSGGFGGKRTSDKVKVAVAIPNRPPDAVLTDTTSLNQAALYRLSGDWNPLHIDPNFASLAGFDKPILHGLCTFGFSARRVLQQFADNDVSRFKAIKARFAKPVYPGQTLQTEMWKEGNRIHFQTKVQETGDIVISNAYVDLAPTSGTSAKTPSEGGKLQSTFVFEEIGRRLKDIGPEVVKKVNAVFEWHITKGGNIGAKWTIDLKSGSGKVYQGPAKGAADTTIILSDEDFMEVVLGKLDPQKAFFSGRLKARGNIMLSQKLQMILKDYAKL
Experimental: The SIA kit Au from Biacore Company (#BR-1004-05) was immersed in Piranha solution (25% H2O2, 75% H2SO4) in a glass dish, and washed with shaking for 3 hours. Next, this chip was washed with Milli-Q Water and ethanol, and allowed to stand overnight as immersed in an ethanol solution (1.5 mM) of 11-amino-1-undecanethiol hydrochloride (Dojindo, #A423). After this was washed with N-methylpyrrolidone (NMP), it was placed in an NMP solution containing N-Fmoc-amido-dPEG4™-acid (50 mM), PyBop (50 mM) and diisopropylethylamine (Pr2Net; 100 mM) and shaken for 16 hours to cause the reaction. After the mixture was washed with NMP, the reaction was allowed to proceed in an acetonitrile (MeCN) solution containing acetic acid (10 mM), HOBt (10 mM) and WSCI (water-soluble carbodiimide; 10 mM) for 5.5 hours. […]
An entry vector was prepared using the GATEWAY system from Invitrogen Company, and recombinant MFP-2 was expressed as a protein with N-terminal His-tag using an E. coli expression system (pDEST17). […]
The Kd value was measured using Biacore 3000. […]
After data were measured, differences from the control were determined using analytical software (BIACORE Company, BIA evaluation ver 4.1) and analyzed by global fitting to calculate the Kd value. As a result, the value was determined to be 0.64 nM.

MFP-2 = target: T2, MFP-2 (Rattus norvegicus, UniProt P97852); test: Binding experiments: compound-immobilized resins with rat brain lysate, SDS-PAGE and MALDI-TOF identification; details: first vs second binding experiment with fresh resin, SDS gel
T2 construct: The supernatant thus obtained was used as the lysate; from tissue; host or cells: rat brain
T2 sequence (P97852 1-735): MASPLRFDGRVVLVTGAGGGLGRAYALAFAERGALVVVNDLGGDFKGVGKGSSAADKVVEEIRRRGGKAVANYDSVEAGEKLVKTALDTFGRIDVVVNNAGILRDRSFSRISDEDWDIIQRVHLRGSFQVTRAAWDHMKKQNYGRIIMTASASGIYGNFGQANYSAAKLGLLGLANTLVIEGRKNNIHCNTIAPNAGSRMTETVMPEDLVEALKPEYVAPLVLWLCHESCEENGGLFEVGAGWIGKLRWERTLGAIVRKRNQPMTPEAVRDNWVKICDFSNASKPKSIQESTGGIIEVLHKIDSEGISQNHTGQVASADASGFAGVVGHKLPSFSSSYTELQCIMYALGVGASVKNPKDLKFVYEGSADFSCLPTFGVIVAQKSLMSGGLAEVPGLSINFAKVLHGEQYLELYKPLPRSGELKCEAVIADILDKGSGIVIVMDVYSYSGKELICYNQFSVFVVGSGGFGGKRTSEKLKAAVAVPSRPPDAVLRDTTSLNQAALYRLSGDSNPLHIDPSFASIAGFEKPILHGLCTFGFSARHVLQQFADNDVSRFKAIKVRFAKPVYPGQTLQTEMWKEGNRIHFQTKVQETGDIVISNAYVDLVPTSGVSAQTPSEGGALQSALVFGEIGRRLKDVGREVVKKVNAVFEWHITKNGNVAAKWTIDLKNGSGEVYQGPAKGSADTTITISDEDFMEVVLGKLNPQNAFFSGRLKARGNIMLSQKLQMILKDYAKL
Experimental: The rat brain (2.4 g) was mixed in a mixed solution A (25 mM Tris-HCl pH 8.0, 0.5% Tween 20, 300 μM DCC (24 ml; N,N-diethyldithiocarbamate sodium)) and prepared as a homogenate, which was then centrifuged at 9,000 rpm for 10 minutes. The centrifugal supernatant was collected and further centrifuged at 50,000 rpm for 30 minutes. The supernatant thus obtained was used as the lysate. Note that all experiments were performed at 4° C. or on ice.
Binding experiments were performed using the immobilizing resins with each test compound immobilized thereon, prepared in Examples 1 to 2, and the rat brain lysate prepared in Example 3(1), per the procedures shown below.
Each resin (10 μl) and lysate (1 ml) were gently shaken at 4° C. for about 1 hour. Thereafter, centrifugal operation was performed, and each supernatant was collected carefully. Then, each supernatant was again mixed with a fresh compound-bound resin (10 μl). At this time, the separated compound-bound resin was gently stored at 4° C. as the resin of the first binding experiment. After the mixture was gently stirred for about 1 hour, centrifugal operation was performed, and the supernatant was removed. […] The sample solution thus obtained was separated using a commercially available SDS gel (BioRad readyGel J, 10% SDS, cat. NO=161-J341), and the SDS gel was analyzed (FIG. 2). […]

| Structure (SMILES) | Kd (recombinant MFP-2) | binding of MFP-2 to the compound-immobilized resin (MFP-2) |
| --- | --- | --- |
| O=C(O)c1cc(=O)c2c(OCC(O)COc3cccc4oc(C(=O)O)cc(=O)c34)cccc2o1 [Intal, disodium salt of 1,3-bis(2-carboxychromon-5-yloxy)-2-hydroxypropane] | 0.64 nM | specific binding |
| O=C(Cn1c(=O)sc2ccc(Cl)cc21)N1CCN(CCO)CC1 [tiaramide] | – | specific binding |
